Each structure is given as a SMILES string.

Here are results for one compound from patent publication US20150017092A1, “DEVICES AND METHODS FOR DETERMINING SENSITIVITY TO RADIATION” (The Regents of the University of California, priority 2012, published 2015).

One assay relates to MCF10A. The assay can be described thus: 53BP1 radiation induced foci (RIF) time response in MCF10A exposed to X-rays under ATM inhibition, fitted with Eq. 1. In kind it is cell-based, human. Particulars: for T1/2_1 (RIF induction half-life): 10 μM inhibitor; for α, RIF/Gy (absolute RIF yield): 10 μM inhibitor from 1 h pre-IR, one experiment. From the text: To test the validity of the mathematical model further, we perturbed the rates of RIF formation or RIF removal by inhibiting ataxia telangiectasia mutated (ATM) kinase activity with KU55933 (see Materials and Methods).
The cells were fixed for immunofluorescence at specific intervals after exposure to X-rays. We typically refer to “low dose” or “high dose” as doses below or equal to 0.1 Gy or larger than 1 Gy, respectively. For high-LET IR, cells were irradiated at the accelerator beam line of the National Aeronautics and Space Administration Space […] Laboratory at Brookhaven National Laboratory.
We are only briefly describing these procedures. For complete information, see Supplemental Information Materials and Methods. Immunostaining using anti-53BP1 (rabbit polyclonal, Bethyl Laboratories A300-272A) was performed according to previous staining protocol (Costes et al. (2006) Radiat. Res. 165: 505-515). For image acquisition, both live and fixed MCF10A were imaged using a Zeiss plan-apochromat 40× dry objective (N.A. of 0.95) at a fixed exposure time. Nondeconvolved 3D stacks were acquired and used for image analysis (10 slices of 0.5-μm steps for fixed cells and 3 slices of 1-μm step for live cells). All image manipulations, foci analysis, and statistics were done with Matlab (MathWorks, Inc.) and DIPimage (image processing toolbox for Matlab, Delft University of Technology). In contrast to previous intensity-based methods for RIF identification (Bocker and Iliakis (2006) Radiat. Res. 165: 113-124), we used a pattern recognition approach to detect RIF by applying a wavelet morphological filter to enhance RIF peaks in the image while reducing noise from nonspecific signals (Olivo-Marin (2002) Pattern Recognition 35: 1989-1996). Nuclear space occupied by RIF was identified by applying a constant threshold on the wavelet filtered image, and watershed algorithm was used to separate touching RIF. To test if focus size could affect the accuracy of automatic RIF detection, we applied the software on simulated data where foci sizes and densities had different values (i.e., 1 to 40 foci/nucleus were simulated with four distinct sizes: 0.1, 0.4, 1.3, and 2.4 μm^3; FIG. 17). […] Finally, in order to extract the number of “real” RIF from the number of background foci in each scored nucleus, we introduced a background subtraction method that assumes the measured RIF distribution is the result of a convolution between the “real” RIF distribution and the background foci distribution (FIG. 18). For quantification of RIF in live cells, we counted both the cumulative and instantaneous number of RIF manually in 3D time-lapse images. Time interval varied between experiments and was generally set to 10-min interval for the first hour, followed by 30-min interval afterwards. This setting was optimum to minimize phototoxicity and specimen bleaching. Because of the difficulty of software to track individual foci in successive time lapse, analysis had to be done manually in a blind manner on processed images.
In order to interpret RIF kinetics in an unbiased manner, we introduce a simple mathematical model describing RIF formation where one DSB is detected at a rate k leading to one RIF, and one RIF is resolved after repair at a rate k2, assuming both processes are irreversible. This model can be noted as follows:
where α is the number of naked DSB/Gy before formation of RIF and D is the dose delivered to the cell. Alpha (α) should be constant for all doses. Further details are provided in the supporting information materials and methods regarding the way Eq. 1 is fitted.

Assay [1] has as its target T1, ataxia telangiectasia mutated (ATM) kinase (Homo sapiens, UniProt Q13315).
T1 construct: endogenous in cells; host or cells: MCF10A (human mammary epithelial cells, ATCC)
Put plainly: Inhibition of ATM measured by Western blot of P53-S15p. In kind it is cell-based. Particulars: 10 μM inhibitor, MCF10A. Background: A western blot detects proteins with antibodies after separation by electrophoresis.

T1 sequence (Q13315 whole entry, change not shown): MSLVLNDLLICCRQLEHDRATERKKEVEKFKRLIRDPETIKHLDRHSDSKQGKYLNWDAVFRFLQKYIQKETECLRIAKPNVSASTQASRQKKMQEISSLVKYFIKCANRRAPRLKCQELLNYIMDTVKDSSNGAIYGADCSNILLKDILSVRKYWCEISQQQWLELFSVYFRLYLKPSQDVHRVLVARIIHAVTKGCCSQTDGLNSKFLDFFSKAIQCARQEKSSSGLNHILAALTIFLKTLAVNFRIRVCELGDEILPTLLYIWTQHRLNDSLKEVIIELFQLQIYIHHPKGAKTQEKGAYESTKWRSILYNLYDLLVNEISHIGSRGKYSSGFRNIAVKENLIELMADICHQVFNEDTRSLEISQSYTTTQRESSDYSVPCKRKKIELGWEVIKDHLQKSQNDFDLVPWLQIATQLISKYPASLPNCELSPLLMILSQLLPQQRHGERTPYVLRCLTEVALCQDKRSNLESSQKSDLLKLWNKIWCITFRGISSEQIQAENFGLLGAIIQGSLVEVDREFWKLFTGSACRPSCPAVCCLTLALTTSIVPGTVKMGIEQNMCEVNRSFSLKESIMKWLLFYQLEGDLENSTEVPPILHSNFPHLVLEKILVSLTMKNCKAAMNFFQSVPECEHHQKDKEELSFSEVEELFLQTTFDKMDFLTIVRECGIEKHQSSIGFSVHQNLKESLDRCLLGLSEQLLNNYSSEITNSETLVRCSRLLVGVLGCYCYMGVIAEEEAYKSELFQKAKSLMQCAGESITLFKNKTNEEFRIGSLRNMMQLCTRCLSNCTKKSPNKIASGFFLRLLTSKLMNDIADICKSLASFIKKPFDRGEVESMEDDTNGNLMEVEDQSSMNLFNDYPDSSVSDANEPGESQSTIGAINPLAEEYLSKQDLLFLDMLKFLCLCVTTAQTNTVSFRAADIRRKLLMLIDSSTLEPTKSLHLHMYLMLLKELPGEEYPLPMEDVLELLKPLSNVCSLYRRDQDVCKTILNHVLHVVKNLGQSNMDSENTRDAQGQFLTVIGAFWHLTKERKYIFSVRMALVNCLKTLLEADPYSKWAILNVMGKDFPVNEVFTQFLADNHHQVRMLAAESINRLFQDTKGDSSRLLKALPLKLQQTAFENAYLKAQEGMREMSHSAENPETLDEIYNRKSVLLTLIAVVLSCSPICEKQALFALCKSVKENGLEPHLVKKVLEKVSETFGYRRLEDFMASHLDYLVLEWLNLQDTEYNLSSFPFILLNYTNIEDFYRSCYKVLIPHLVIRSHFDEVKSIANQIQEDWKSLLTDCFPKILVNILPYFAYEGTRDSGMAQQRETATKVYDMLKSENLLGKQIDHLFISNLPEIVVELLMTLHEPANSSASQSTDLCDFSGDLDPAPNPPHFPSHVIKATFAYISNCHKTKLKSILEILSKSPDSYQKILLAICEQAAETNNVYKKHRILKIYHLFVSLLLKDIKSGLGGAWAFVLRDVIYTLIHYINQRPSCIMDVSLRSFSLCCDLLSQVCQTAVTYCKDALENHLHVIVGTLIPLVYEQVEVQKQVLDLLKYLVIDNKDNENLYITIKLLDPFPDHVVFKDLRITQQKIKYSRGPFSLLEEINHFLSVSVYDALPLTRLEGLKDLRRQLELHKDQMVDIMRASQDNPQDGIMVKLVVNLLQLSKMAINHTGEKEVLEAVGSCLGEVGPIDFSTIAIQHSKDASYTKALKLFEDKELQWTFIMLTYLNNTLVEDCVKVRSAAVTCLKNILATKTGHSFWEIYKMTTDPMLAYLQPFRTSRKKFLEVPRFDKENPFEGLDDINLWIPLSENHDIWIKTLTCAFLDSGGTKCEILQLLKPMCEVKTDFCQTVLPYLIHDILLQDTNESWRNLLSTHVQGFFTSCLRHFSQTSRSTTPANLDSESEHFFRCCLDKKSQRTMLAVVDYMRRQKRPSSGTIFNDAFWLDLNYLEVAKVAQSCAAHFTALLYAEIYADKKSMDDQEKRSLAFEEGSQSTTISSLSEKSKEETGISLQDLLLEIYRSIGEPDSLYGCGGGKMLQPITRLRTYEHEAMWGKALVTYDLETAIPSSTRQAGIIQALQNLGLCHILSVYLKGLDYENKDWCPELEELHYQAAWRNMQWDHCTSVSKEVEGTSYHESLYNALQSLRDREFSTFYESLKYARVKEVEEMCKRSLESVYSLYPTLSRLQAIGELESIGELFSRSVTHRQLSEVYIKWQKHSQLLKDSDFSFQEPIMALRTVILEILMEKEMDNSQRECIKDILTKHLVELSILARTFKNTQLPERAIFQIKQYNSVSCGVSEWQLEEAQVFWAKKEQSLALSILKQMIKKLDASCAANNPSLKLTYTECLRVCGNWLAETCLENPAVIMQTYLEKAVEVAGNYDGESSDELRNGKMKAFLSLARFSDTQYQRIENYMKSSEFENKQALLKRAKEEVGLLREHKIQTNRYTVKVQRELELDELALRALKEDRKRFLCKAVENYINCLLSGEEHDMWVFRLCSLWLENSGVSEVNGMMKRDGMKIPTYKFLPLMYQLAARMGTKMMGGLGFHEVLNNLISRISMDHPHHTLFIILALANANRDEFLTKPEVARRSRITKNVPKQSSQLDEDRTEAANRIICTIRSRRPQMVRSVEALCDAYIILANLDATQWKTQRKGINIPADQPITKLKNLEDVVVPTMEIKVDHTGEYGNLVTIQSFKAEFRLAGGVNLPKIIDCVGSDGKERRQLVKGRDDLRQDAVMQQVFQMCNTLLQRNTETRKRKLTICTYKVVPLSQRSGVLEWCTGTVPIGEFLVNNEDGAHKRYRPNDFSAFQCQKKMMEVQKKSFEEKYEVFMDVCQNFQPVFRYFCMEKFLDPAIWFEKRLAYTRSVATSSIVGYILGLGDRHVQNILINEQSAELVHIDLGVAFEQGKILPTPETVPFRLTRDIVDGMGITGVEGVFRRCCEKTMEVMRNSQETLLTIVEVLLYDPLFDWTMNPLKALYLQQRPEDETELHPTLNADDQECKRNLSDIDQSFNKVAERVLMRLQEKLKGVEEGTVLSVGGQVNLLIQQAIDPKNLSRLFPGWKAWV

Regarding `O=c1cc(-c2cccc3c2Sc2ccccc2S3)oc(N2CCOCC2)c1` [KU55933], the “T1/2_1 (RIF induction half-life)” value came out at 8.3 min in the assay on MCF10A (0.1 Gy X-rays), 5.9 min in the assay with MCF10A (0.4 Gy X-rays), 4.2 min in the assay with MCF10A (1 Gy X-rays) and 2.6 min in the assay with MCF10A (2 Gy X-rays). In addition, the “α, RIF/Gy (absolute RIF yield)” value in the assay on MCF10A (0.1 Gy X-rays) came out at 25±17 RIF/Gy; in the assay on MCF10A (0.1 Gy X-rays, listed as ATM inhibition), 25 RIF/Gy; in the assay on MCF10A (0.4 Gy X-rays), 25 RIF/Gy; with MCF10A (1 Gy X-rays), 19 RIF/Gy; with MCF10A (2 Gy X-rays), 12±2 RIF/Gy; with MCF10A (2 Gy X-rays, listed as ATM inhibition), 12 RIF/Gy. For the same compound, in the assay on MCF10A (across all doses), the “detection half-lives with versus without ATM inhibition” value is recorded as “comparable”. Besides, the “reduction of α versus normal conditions” value is recorded as 3 fold with MCF10A (after 0.1 Gy of X-rays) and “no significant reduction” in the assay on MCF10A (after 2 Gy of X-rays). In the assay with MCF10A (at high doses), the “RIF resolution with versus without ATM inhibition” value is recorded as “significantly slower”. The “drop of RIF yield between 0.1 and 2 Gy” value in the assay on MCF10A (under ATM inhibition) was determined as 2 fold. Moreover, in the assay with MCF10A (under ATM inhibition versus normal media), the “overall number of RIF” value is reported as “largely diminished”. For the same compound, the “phosphorylated p53 at S15” value in assay [1] was “reduction”.
